Data: patent EP0141119A2, “Sulfenamide derivatives, process for their preparation, and medicaments containing these compounds” (LUDWIG HEUMANN & CO GMBH, priority 1983, dated 1985)

Target: T1, Histamin-H2-Rezeptoren (Cavia porcellus, UniProt P47747)
T1 construct: in vitro am isolierten rechten Vorhof des Meerschweinchens; from tissue; host or cells: isolated right atrium of the guinea pig
Experiment: Determination of pA2 values in vitro on the isolated right atrium of the guinea pig (H2-antagonistic activity)
Type: cell-based, Meerschweinchen
Conditions: read-out: pA2-Werte (converted)
Text: Eine anerkannte Methode zur Bestimmung H2-antagonistischer Wirksamkeit ist die Ermittlung der pA2-Werte in vitro am isolierten rechten Vorhof des Meerschweinchens.

T1 sequence (P47747 whole entry): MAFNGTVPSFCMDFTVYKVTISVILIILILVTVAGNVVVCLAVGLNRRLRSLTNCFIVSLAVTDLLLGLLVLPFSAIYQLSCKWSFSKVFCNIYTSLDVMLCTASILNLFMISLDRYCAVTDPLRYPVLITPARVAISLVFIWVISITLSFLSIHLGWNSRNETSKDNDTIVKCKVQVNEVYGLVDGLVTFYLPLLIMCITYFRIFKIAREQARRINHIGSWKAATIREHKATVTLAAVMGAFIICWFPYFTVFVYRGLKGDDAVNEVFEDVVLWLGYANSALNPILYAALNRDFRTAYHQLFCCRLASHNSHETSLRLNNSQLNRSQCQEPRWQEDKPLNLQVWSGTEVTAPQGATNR

| Structure (SMILES) | Kb [nM] |
| --- | --- |
| Cc1ccc(SNc2nc(NCCCOc3cccc(CN4CCCCC4)c3)n(C)n2)cc1 [Beispiel 1, 1-Methyl-5-[3-[3-(1-piperidinylmethyl)phenoxy]propylamino]-3-(4-methyl-benzolsulfenamido)-1H-1,2,4-triazol] | 1.58 |
| CNC(=C[N+](=O)[O-])NCCSCc1ccc(CN(C)C)o1 [Ranitidin] | 155 |
